Test results as given in US20230085307A1, “PYRIDAZINONE COMPOUND AND HERBICIDE” (NISSAN CHEMICAL CORPORATION, priority 2019, published 2023).

Assays:
[1] = system: lambsquarters; assay: Test Example 4: herbicidal effect by soil treatment (Table 19, symbol O); type: in vivo, lambsquarters (Chenopodium album); details: amount of applied herbicide 320 g/ha
Procedure, shortened: (§1)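 Scoring uses the grading scale of an earlier test, three weeks post-application. Treatment consists of spraying a diluted emulsion formulation across the surface of sterilized diluvial soil in which seeds are buried near 1.5 cm deep; boxes are kept in a greenhouse between 25° C. and 30° C.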

[2] = system: velvetleaf; assay: Test Example 5: herbicidal effect by foliage application, plastic box (Table 20, symbol M); type: in vivo, velvetleaf (Abutilon theophrasti); details: foliage application after 14-day growth, evaluated three weeks after application
Procedure, shortened: (§2)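 Post-emergence foliar test in sterilized diluvial soil. Compound applied as water-diluted emulsion at a predetermined rate to 14-day-old plants; evaluation at three weeks.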

[3] = system: blackgrass; assay: Test Example 4: herbicidal effect by soil treatment (Table 19, symbol J); type: in vivo, blackgrass (Alopecurus myosuroides); details: amount of applied herbicide 320 g/ha
Procedure, shortened: as §1

[4] = system: green foxtail; assay: Test Example 4: herbicidal effect by soil treatment (Table 19, symbol G); type: in vivo, green foxtail (Setaria viridis); details: amount of applied herbicide 320 g/ha
Procedure, shortened: as §1

[5] = system: barnyard grass; assay: Test Example 4: herbicidal effect by soil treatment (Table 19, symbol H); type: in vivo, barnyard grass (Echinochloa crus-galli); details: amount of applied herbicide 320 g/ha
Procedure, shortened: as §1

[6] = system: wild oat; assay: Test Example 5: herbicidal effect by foliage application, plastic box (Table 20, symbol I); type: in vivo, wild oat (Avena fatua); details: foliage application after 14-day growth, evaluated three weeks after application
Procedure, shortened: as §2

[7] = system: persian speedwell; assay: Test Example 4: herbicidal effect by soil treatment (Table 19, symbol R); type: in vivo, Persian speedwell (Veronica persica); details: amount of applied herbicide 320 g/ha
Procedure, shortened: as §1

[8] = system: southern crabgrass; assay: Test Example 5: herbicidal effect by foliage application, plastic box (Table 20, symbol F); type: in vivo, southern crabgrass (Digitaria ciliaris); details: foliage application after 14-day growth, evaluated three weeks after application
Procedure, shortened: as §2

[9] = system: persian speedwell; assay: Test Example 5: herbicidal effect by foliage application, plastic box (Table 20, symbol R); type: in vivo, Persian speedwell (Veronica persica); details: foliage application after 14-day growth, evaluated three weeks after application
Procedure, shortened: as §2

[10] = system: barnyard grass; assay: Test Example 3: herbicidal effect by foliage application, Wagner pot (Table 18, symbol H); type: in vivo, barnyard grass (Echinochloa crus-galli); details: 320 g/ha
Procedure, shortened: (§3)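 Plants were sown in alluvial soil held under 0.1–0.5 cm standing water and grown 14 days in a greenhouse at 25–30 °C. An emulsifiable formulation, water-diluted to the set dose, was then sprayed onto the foliage, and effects were scored three weeks later using previously defined criteria.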

[11] = system: blackgrass; assay: Test Example 5: herbicidal effect by foliage application, plastic box (Table 20, symbol J); type: in vivo, blackgrass (Alopecurus myosuroides); details: foliage application after 14-day growth, evaluated three weeks after application
Procedure, shortened: as §2

[12] = system: rice flat sedge; assay: Test Example 3: herbicidal effect by foliage application, Wagner pot (Table 18, symbol E); type: in vivo, rice flat sedge (Cyperus iria); details: 320 g/ha
Procedure, shortened: as §3

[13] = system: Chinese sprangletop; assay: Test Example 3: herbicidal effect by foliage application, Wagner pot (Table 18, symbol D); type: in vivo, chinese sprangletop (Leptochloa chinensis); details: 320 g/ha
Procedure, shortened: as §3

[14] = system: redroot pigweed; assay: Test Example 5: herbicidal effect by foliage application, plastic box (Table 20, symbol N); type: in vivo, redroot pigweed (Amaranthus retroflexus); details: foliage application after 14-day growth, evaluated three weeks after application
Procedure, shortened: as §2

[15] = system: green foxtail; assay: Test Example 5: herbicidal effect by foliage application, plastic box (Table 20, symbol G); type: in vivo, green foxtail (Setaria viridis); details: foliage application after 14-day growth, evaluated three weeks after application
Procedure, shortened: as §2

[16] = system: velvetleaf; assay: Test Example 4: herbicidal effect by soil treatment (Table 19, symbol M); type: in vivo, velvetleaf (Abutilon theophrasti); details: amount of applied herbicide 320 g/ha
Procedure, shortened: as §1

[17] = system: southern crabgrass; assay: Test Example 4: herbicidal effect by soil treatment (Table 19, symbol F); type: in vivo, southern crabgrass (Digitaria ciliaris); details: amount of applied herbicide 320 g/ha
Procedure, shortened: as §1

[18] = system: wild oat; assay: Test Example 4: herbicidal effect by soil treatment (Table 19, symbol I); type: in vivo, wild oat (Avena fatua); details: amount of applied herbicide 320 g/ha
Procedure, shortened: as §1

[19] = system: Italian ryegrass; assay: Test Example 4: herbicidal effect by soil treatment (Table 19, symbol K); type: in vivo, Italian ryegrass (Lolium multiflorum); details: amount of applied herbicide 320 g/ha
Procedure, shortened: as §1

[20] = system: Italian ryegrass; assay: Test Example 5: herbicidal effect by foliage application, plastic box (Table 20, symbol K); type: in vivo, Italian ryegrass (Lolium multiflorum); details: foliage application after 14-day growth, evaluated three weeks after application
Procedure, shortened: as §2

[21] = system: windgrass; assay: Test Example 5: herbicidal effect by foliage application, plastic box (Table 20, symbol L); type: in vivo, windgrass (Apera spica-venti); details: foliage application after 14-day growth, evaluated three weeks after application
Procedure, shortened: as §2

[22] = system: chickweed; assay: Test Example 4: herbicidal effect by soil treatment (Table 19, symbol P); type: in vivo, common chickweed (Stellaria media); details: amount of applied herbicide 320 g/ha
Procedure, shortened: as §1

[23] = system: lambsquarters; assay: Test Example 5: herbicidal effect by foliage application, plastic box (Table 20, symbol O); type: in vivo, lambsquarters (Chenopodium album); details: foliage application after 14-day growth, evaluated three weeks after application
Procedure, shortened: as §2

[24] = system: redroot pigweed; assay: Test Example 4: herbicidal effect by soil treatment (Table 19, symbol N); type: in vivo, redroot pigweed (Amaranthus retroflexus); details: amount of applied herbicide 320 g/ha
Procedure, shortened: as §1

[25] = system: chickweed; assay: Test Example 5: herbicidal effect by foliage application, plastic box (Table 20, symbol P); type: in vivo, common chickweed (Stellaria media); details: foliage application after 14-day growth, evaluated three weeks after application
Procedure, shortened: as §2

[26] = system: windgrass; assay: Test Example 4: herbicidal effect by soil treatment (Table 19, symbol L); type: in vivo, windgrass (Apera spica-venti); details: amount of applied herbicide 320 g/ha
Procedure, shortened: as §1

[27] = system: barnyard grass; assay: Test Example 5: herbicidal effect by foliage application, plastic box (Table 20, symbol H); type: in vivo, barnyard grass (Echinochloa crus-galli); details: foliage application after 14-day growth, evaluated three weeks after application
Procedure, shortened: as §2

[28] = amount of applied herbicide 320 g/ha

## Cc1nn(C)c(=O)c(-c2c(-c3ccc(C#N)cc3)sc3cc(F)c(F)cc23)c1O [5-025]
[1]
  O: lambsquarters, herbicidal effect grade: 5 (Herbicidal rate of 90% or more (almost completely withered))
[2]; [28]
  Herbicidal effect by foliage application, M: velvetleaf: 5 (Herbicidal rate of 90% or more (almost completely withered))
[3]
  J: blackgrass, herbicidal effect grade: 0 (Herbicidal rate of 5% or less (almost no effect))
[4]
  G: green foxtail, herbicidal effect grade: 4 (Herbicidal rate of 70% or more and less than 90%)
[5]
  H: barnyard grass, herbicidal effect grade: 3 (Herbicidal rate of 40% or more and less than 70%)
[6]; [28]
  Herbicidal effect by foliage application, I: wild oat: 3 (Herbicidal rate of 40% or more and less than 70%)
[7]
  R: persian speedwell, herbicidal effect grade: 4 (Herbicidal rate of 70% or more and less than 90%)
[8]; [28]
  Herbicidal effect by foliage application, F: southern crabgrass: 3 (Herbicidal rate of 40% or more and less than 70%)
[9]; [28]
  Herbicidal effect by foliage application, R: persian speedwell: 5 (Herbicidal rate of 90% or more (almost completely withered))
[10]
  herbicidal effect on barnyard grass (H): 3 (Herbicidal rate of 40% or more and less than 70%)
[11]; [28]
  Herbicidal effect by foliage application, J: blackgrass: 1 (Herbicidal rate of 5% or more and less than 20%)
[12]
  herbicidal effect on rice flat sedge (E): 4 (Herbicidal rate of 70% or more and less than 90%)
[13]
  herbicidal effect on Chinese sprangletop (D): 4 (Herbicidal rate of 70% or more and less than 90%)
[14]; [28]
  Herbicidal effect by foliage application, N: redroot pigweed: 5 (Herbicidal rate of 90% or more (almost completely withered))
[15]; [28]
  Herbicidal effect by foliage application, G: green foxtail: 4 (Herbicidal rate of 70% or more and less than 90%)
[16]
  M: velvetleaf, herbicidal effect grade: 3 (Herbicidal rate of 40% or more and less than 70%)
[17]
  F: southern crabgrass, herbicidal effect grade: 1 (Herbicidal rate of 5% or more and less than 20%)
[18]
  I: wild oat, herbicidal effect grade: 1 (Herbicidal rate of 5% or more and less than 20%)
[19]
  K: Italian ryegrass, herbicidal effect grade: 1 (Herbicidal rate of 5% or more and less than 20%)
[20]; [28]
  Herbicidal effect by foliage application, K: Italian ryegrass: 1 (Herbicidal rate of 5% or more and less than 20%)
[21]; [28]
  Herbicidal effect by foliage application, L: windgrass: 5 (Herbicidal rate of 90% or more (almost completely withered))
[22]
  P: chickweed, herbicidal effect grade: 3 (Herbicidal rate of 40% or more and less than 70%)
[23]; [28]
  Herbicidal effect by foliage application, O: lambsquarters: 5 (Herbicidal rate of 90% or more (almost completely withered))
[24]
  N: redroot pigweed, herbicidal effect grade: 5 (Herbicidal rate of 90% or more (almost completely withered))
[25]; [28]
  Herbicidal effect by foliage application, P: chickweed: 5 (Herbicidal rate of 90% or more (almost completely withered))
[26]
  L: windgrass, herbicidal effect grade: 0 (Herbicidal rate of 5% or less (almost no effect))
[27]; [28]
  Herbicidal effect by foliage application, H: barnyard grass: 1 (Herbicidal rate of 5% or more and less than 20%)

## CCCC(=O)Oc1c(C)nn(C)c(=O)c1-c1c(-c2ccc(F)cc2)sc2c(F)cccc12 [4-002]
[1]
  Herbicidal effect by soil treatment, O: lambsquarters: 3 (Herbicidal rate of 40% or more and less than 70%)
[2]; 320 g/ha
  herbicidal effect on M: velvetleaf (evaluation grade 0-5): 5 (Herbicidal rate of 90% or more (almost completely withered))
[3]
  Herbicidal effect by soil treatment, J: blackgrass: 0 (Herbicidal rate of 5% or less (almost no effect))
[4]
  Herbicidal effect by soil treatment, G: green foxtail: 2 (Herbicidal rate of 20% or more and less than 40%)
[5]
  Herbicidal effect by soil treatment, H: barnyard grass: 4 (Herbicidal rate of 70% or more and less than 90%)
[6]; 320 g/ha
  herbicidal effect on I: wild oat (evaluation grade 0-5): 0 (Herbicidal rate of 5% or less (almost no effect))
[7]
  Herbicidal effect by soil treatment, R: persian speedwell: 0 (Herbicidal rate of 5% or less (almost no effect))
[8]; 320 g/ha
  herbicidal effect on F: southern crabgrass (evaluation grade 0-5): 0 (Herbicidal rate of 5% or less (almost no effect))
[9]; 320 g/ha
  herbicidal effect on R: persian speedwell (evaluation grade 0-5): 4 (Herbicidal rate of 70% or more and less than 90%)
[10]
  herbicidal effect on barnyard grass (H): 5 (Herbicidal rate of 90% or more (almost completely withered))
[11]; 320 g/ha
  herbicidal effect on J: blackgrass (evaluation grade 0-5): 1 (Herbicidal rate of 5% or more and less than 20%)
[12]
  herbicidal effect on rice flat sedge (E): 5 (Herbicidal rate of 90% or more (almost completely withered))
[13]
  herbicidal effect on Chinese sprangletop (D): 2 (Herbicidal rate of 20% or more and less than 40%)
[14]; 320 g/ha
  herbicidal effect on N: redroot pigweed (evaluation grade 0-5): 5 (Herbicidal rate of 90% or more (almost completely withered))
[15]; 320 g/ha
  herbicidal effect on G: green foxtail (evaluation grade 0-5): 4 (Herbicidal rate of 70% or more and less than 90%)
[16]
  Herbicidal effect by soil treatment, M: velvetleaf: 2 (Herbicidal rate of 20% or more and less than 40%)
[17]
  Herbicidal effect by soil treatment, F: southern crabgrass: 0 (Herbicidal rate of 5% or less (almost no effect))
[18]
  Herbicidal effect by soil treatment, I: wild oat: 0 (Herbicidal rate of 5% or less (almost no effect))
[19]
  Herbicidal effect by soil treatment, K: Italian ryegrass: 0 (Herbicidal rate of 5% or less (almost no effect))
[20]; 320 g/ha
  herbicidal effect on K: Italian ryegrass (evaluation grade 0-5): 3 (Herbicidal rate of 40% or more and less than 70%)
[21]; 320 g/ha
  herbicidal effect on L: windgrass (evaluation grade 0-5): 0 (Herbicidal rate of 5% or less (almost no effect))
[22]
  Herbicidal effect by soil treatment, P: chickweed: 0 (Herbicidal rate of 5% or less (almost no effect))
[23]; 320 g/ha
  herbicidal effect on O: lambsquarters (evaluation grade 0-5): 3 (Herbicidal rate of 40% or more and less than 70%)
[24]
  Herbicidal effect by soil treatment, N: redroot pigweed: 3 (Herbicidal rate of 40% or more and less than 70%)
[25]; 320 g/ha
  herbicidal effect on P: chickweed (evaluation grade 0-5): 5 (Herbicidal rate of 90% or more (almost completely withered))
[26]
  Herbicidal effect by soil treatment, L: windgrass: 0 (Herbicidal rate of 5% or less (almost no effect))
[27]; 320 g/ha
  herbicidal effect on H: barnyard grass (evaluation grade 0-5): 4 (Herbicidal rate of 70% or more and less than 90%)
